This is an account of results in patent US20070049593A1 (priority 2004, published 2007).

pIC50: −log10 of the molar value. Where a name gives a salt, the structure may show the parent alone.

T1 sequence (P26663 2420-2963): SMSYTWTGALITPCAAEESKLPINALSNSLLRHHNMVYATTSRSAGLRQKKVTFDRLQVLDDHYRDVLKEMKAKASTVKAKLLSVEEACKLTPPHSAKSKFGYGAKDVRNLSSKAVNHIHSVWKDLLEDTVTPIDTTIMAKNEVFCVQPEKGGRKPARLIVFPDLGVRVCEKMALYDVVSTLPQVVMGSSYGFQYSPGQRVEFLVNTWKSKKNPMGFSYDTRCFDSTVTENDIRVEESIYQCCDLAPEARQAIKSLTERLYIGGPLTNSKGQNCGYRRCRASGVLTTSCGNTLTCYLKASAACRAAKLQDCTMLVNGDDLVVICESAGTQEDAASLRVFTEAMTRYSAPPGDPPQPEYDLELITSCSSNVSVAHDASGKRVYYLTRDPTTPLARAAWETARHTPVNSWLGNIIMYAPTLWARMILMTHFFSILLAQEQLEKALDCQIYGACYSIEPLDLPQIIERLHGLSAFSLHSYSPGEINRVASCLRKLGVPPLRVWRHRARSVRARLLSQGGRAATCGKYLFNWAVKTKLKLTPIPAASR

The experiment has as its target T1, HCV polymerase (Hepatitis C virus genotype 1b, UniProt P26663).
T1 construct: a region encoding NS5B (J Virol 1991 March, 65(3), 1105-13, 544 amino acids after deletion of 47 amino acids on the C-terminal); 6xHis (C); made in house; host or cells: Escherichia coli
As to the kind of experiment: biochemical. Further details: species or system HCV BK strain. The method in brief: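 Recombinant HCV BK-strain NS5B (C-terminal 47 aa deleted, His6-tagged, E. coli), 0.5 μg/ml, run with 5 μg/ml in vitro-transcribed RNA template (polyU/3′X), ATP/GTP/CTP 50 μM, UTP 2 μM plus [3H]UTP, pH 7.5, 25° C, 90 min. TCA-precipitated RNA counted by scintillation; IC50 from activity with vs without compound.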
The pIC50 is the IC50 on a negative log10 scale, so that one unit is a factor of ten. Higher therefore signals a small IC50. Regarding `Cc1ccc2c(c1)N(C1CCN(C)CC1)CCn1c-2c(C2CCCCC2)c2ccc(C(=O)O)cc21` [Example 1-564, 13-cyclohexyl-3-methyl-5-(1-methylpiperidin-4-yl)-6,7-dihydro-5H-benzo[5,6][1,4]diazepino[7,1-a]indole-10-carboxylic acid dihydrochloride], the pIC50 is over 7.00.

For `CN(C)CCN1CCn2c(c(C3CCCCC3)c3ccc(C(=O)O)cc32)-c2ccc(OCc3ccncc3)cc21` [Example 1-565, 13-cyclohexyl-5-(2-dimethylaminoethyl)-3-(pyridin-4-ylmethoxy)-6,7-dihydro-5H-benzo[5,6][1,4]diazepino[7,1-a]indole-10-carboxylic acid trihydrochloride], the pIC50 was over 7.00.

As to `Cc1ccc2c(c1)N(CCN1CCC[C@@H](CCN3CCCC3=O)C1)CCn1c-2c(C2CCCCC2)c2ccc(C(=O)O)cc21` [Example 1-566, 13-cyclohexyl-3-methyl-5-(2-{(S)-3-[2-(2-oxopyrrolidin-1-yl)ethyl]piperidin-1-yl]ethyl}-6,7-dihydro-5H-benzo[5,6][1,4]diazepino[7,1-a]indole-10-carboxylic acid dihydrochloride], the pIC50 is over 7.00.

`Cc1ccc2c(c1)N(C)C(C)Cn1c-2c(C2CCCCC2)c2ccc(C(=O)O)cc21` (stereo not shown) [Example 1-567, 13-cyclohexyl-3,5,6-trimethyl-6,7-dihydro-5H-benzo[5,6][1,4]diazepino[7,1-a]indole-10-carboxylic acid] had a pIC50 of over 7.00.

Take `COc1ccc2c(c1)N(CCN1CCSCC1)CCn1c-2c(C2CCCCC2)c2ccc(C(=O)O)cc21` [Example 1-568, 13-cyclohexyl-3-methoxy-5-[2-(thiomorpholin-4-yl)ethyl]-6,7-dihydro-5H-benzo[5,6][1,4]diazepino[7,1-a]indole-10-carboxylic acid dihydrochloride]: the pIC50 is over 7.00.

Molecule `Cc1ccc2c(c1)N(C)CCn1c-2c(C2CCCCC2)c2ccc(C(=O)O)c(C)c21` [Example 1-569, 13-cyclohexyl-3,5,9-trimethyl-6,7-dihydro-5H-benzo[5,6][1,4]diazepino[7,1-a]indole-10-carboxylic acid] had a pIC50 of 6.00 to 7.00.

`COCC[C@@H]1CCCN(C(=O)CN2CCn3c(c(C4CCCCC4)c4ccc(C(=O)O)cc43)-c3ccc(C)cc32)C1` [Example 1-570, 13-cyclohexyl-5-{2-[(S)-3-(2-methoxyethyl)piperidin-1-yl]-2-oxoethyl}-3-methyl-6,7-dihydro-5H-benzo[5,6][1,4]diazepino[7,1-a]indole-10-carboxylic acid] showed a pIC50 of over 7.00.

`Cc1ccc2c(c1)N(CC(=O)N1CCN(S(C)(=O)=O)CC1)CCn1c-2c(C2CCCCC2)c2ccc(C(=O)O)cc21` [Example 1-571, 13-cyclohexyl-5-[2-(4-methanesulfonylpiperazin-1-yl)-2-oxoethyl]-3-methyl-6,7-dihydro-5H-benzo[5,6][1,4]diazepino[7,1-a]indole-10-carboxylic acid] gave a pIC50 of over 7.00.

As to `COC1CCN(C(=O)CN2CCn3c(c(C4CCCCC4)c4ccc(C(=O)O)cc43)-c3ccc(C)cc32)CC1` [Example 1-572, 13-cyclohexyl-5-[2-(4-methoxypiperidin-1-yl)-2-oxoethyl]-3-methyl-6,7-dihydro-5H-benzo[5,6][1,4]diazepino[7,1-a]indole-10-carboxylic acid], the pIC50 was over 7.00.

`CNC(=O)c1ccc2c(C3CCCCC3)c3n(c2c1)CCN(CC(=O)N1CCN(S(C)(=O)=O)CC1)c1cc(C)ccc1-3` [Example 1-573, N-methyl-13-cyclohexyl-5-[2-(4-methanesulfonylpiperazin-1-yl)-2-oxoethyl]-3-methyl-6,7-dihydro-5H-benzo[5,6][1,4]diazepino[7,1-a]indole-10-carboxamide] gave a pIC50 of over 7.00.

For `Cc1ccc2c(c1)N(C)CCn1c-2c(C2CCCCC2)c2ccc(C(=O)O)cc21` [Example 1-574, 13-cyclohexyl-3,5-dimethyl-6,7-dihydro-5H-benzo[5,6][1,4]diazepino[7,1-a]indole-10-carboxylic acid], the pIC50 is over 7.00.

As for `CN(C)CCN1CCn2c(c(C3CCCCC3)c3ccc(C(=O)O)cc32)-c2ccc(OCCN3CCOC3=O)cc21` [Example 1-575, 13-cyclohexyl-5-(2-dimethylaminoethyl)-3-[2-(2-oxooxazolidin-3-yl)ethoxy]-6,7-dihydro-5H-benzo[5,6][1,4]diazepino[7,1-a]indole-10-carboxylic acid dihydrochloride], the pIC50 is over 7.00.

In turn, `CN(C)CCN1CCn2c(c(C3CCCCC3)c3ccc(C(=O)O)cc32)-c2ccc(OCCNCCO)cc21` [Example 1-576, 13-cyclohexyl-5-(2-dimethylaminoethyl)-3-[2-(2-hydroxyethylamino)ethoxy]-6,7-dihydro-5H-benzo[5,6][1,4]diazepino[7,1-a]indole-10-carboxylic acid trihydrochloride] had a pIC50 of over 7.00.

`COc1cccc(COc2ccc3c(c2)N(CCN(C)C)CCn2c-3c(C3CCCCC3)c3ccc(C(=O)O)cc32)c1` [Example 1-577, 13-cyclohexyl-5-(2-dimethylaminoethyl)-3-(3-methoxybenzyloxy)-6,7-dihydro-5H-benzo[5,6][1,4]diazepino[7,1-a]indole-10-carboxylic acid dihydrochloride]: the pIC50 was over 7.00.

In turn, `CN(C)CCN1CCn2c(c(C3CCCCC3)c3ccc(C(=O)O)cc32)-c2ccc(OCc3cccc(N)c3)cc21` [Example 1-578, 3-(3-aminobenzyloxy)-13-cyclohexyl-5-(2-dimethylaminoethyl)-6,7-dihydro-5H-benzo[5,6][1,4]diazepino[7,1-a]indole-10-carboxylic acid trihydrochloride] showed a pIC50 of over 7.00.

For `CN(C)CCN1CCn2c(c(C3CCCCC3)c3ccc(C(=O)O)cc32)-c2ccc(OCc3cccc([N+](=O)[O-])c3)cc21` [Example 1-579, 13-cyclohexyl-5-(2-dimethylaminoethyl)-3-(3-nitrobenzyloxy)-6,7-dihydro-5H-benzo[5,6][1,4]diazepino[7,1-a]indole-10-carboxylic acid dihydrochloride], the pIC50 is over 7.00.

`COC(=O)N1CCC(CCN2CCn3c(c(C4CCCCC4)c4ccc(C(=O)O)cc43)-c3ccc(Cl)cc32)CC1` [Example 1-580, 3-chloro-13-cyclohexyl-5-[2-(1-methoxycarbonylpiperidin-4-yl)ethyl]-6,7-dihydro-5H-benzo[5,6][1,4]diazepino[7,1-a]indole-10-carboxylic acid] showed a pIC50 of over 7.00.

`Cc1ccc2c(c1)N(CCc1ccc(F)cc1)CCn1c-2c(C2CCCCC2)c2ccc(C(=O)O)cc21` [Example 1-581, 13-cyclohexyl-5-[2-(4-fluorophenyl)ethyl]-3-methyl-6,7-dihydro-5H-benzo[5,6][1,4]diazepino[7,1-a]indole-10-carboxylic acid] showed a negative-log IC50 (pIC50) of over 7.00.

On to `CC(=O)Nc1cccc(COc2ccc3c(c2)N(CCN(C)C)CCn2c-3c(C3CCCCC3)c3ccc(C(=O)O)cc32)c1` [Example 1-582, 3-(3-acetylaminobenzyloxy)-13-cyclohexyl-5-(2-dimethylaminoethyl)-6,7-dihydro-5H-benzo[5,6][1,4]diazepino[7,1-a]indole-10-carboxylic acid dihydrochloride], for which the pIC50 was over 7.00.

The molecule `COC(=O)c1ccc2c(C3CCCCC3)c3n(c2c1)CCN(CCN(C)C)c1cc(OCc2cccc(C(=O)O)c2)ccc1-3` [Example 1-583, methyl 3-(3-carboxybenzyloxy)-13-cyclohexyl-5-(2-dimethylaminoethyl)-6,7-dihydro-5H-benzo[5,6][1,4]diazepino[7,1-a]indole-10-carboxylate dihydrochloride] gave a negative-log IC50 (pIC50) of 6.00 to 7.00.

`CN(C)CCN1CCn2c(c(C3CCCCC3)c3ccc(C(=O)O)cc32)-c2ccc(OCCCN3CCCCC3)cc21` [Example 1-584, 13-cyclohexyl-5-(2-dimethylaminoethyl)-3-[3-(piperidin-1-yl)propoxy]-6,7-dihydro-5H-benzo[5,6][1,4]diazepino[7,1-a]indole-10-carboxylic acid trihydrochloride]: the pIC50 is over 7.00.

Take `CN(C)CCN1CCn2c(c(C3CCCCC3)c3ccc(C(=O)O)cc32)-c2ccc(OCc3cccc(N4CCCC4=O)c3)cc21` [Example 1-585, 13-cyclohexyl-5-(2-dimethylaminoethyl)-3-[3-(2-oxopyrrolidin-1-yl)benzyloxy]-6,7-dihydro-5H-benzo[5,6][1,4]diazepino[7,1-a]indole-10-carboxylic acid trihydrochloride]: the pIC50 was over 7.00.

In the case of `CN(C)CCN1CCn2c(c(C3CCCCC3)c3ccc(C(=O)O)cc32)-c2ccc(OCc3cccc(C(=O)O)c3)cc21` [Example 1-586, 3-(3-carboxybenzyloxy)-13-cyclohexyl-5-(2-dimethylaminoethyl)-6,7-dihydro-5H-benzo[5,6][1,4]diazepino[7,1-a]indole-10-carboxylic acid dihydrochloride], the pIC50 was over 7.00.

Molecule `CN(C)CCN1CCn2c(c(C3CCCCC3)c3ccc(C(=O)O)cc32)-c2ccc(OCc3cccc(C(=O)N(C)C)c3)cc21` [Example 1-587, 13-cyclohexyl-5-(2-dimethylaminoethyl)-3-(3-dimethylcarbamoylbenzyloxy)-6,7-dihydro-5H-benzo[5,6][1,4]diazepino[7,1-a]indole-10-carboxylic acid dihydrochloride] showed a pIC50 of over 7.00.

Take `Cc1ccc2c(c1)N(CCc1nc(C)cs1)CCn1c-2c(C2CCCCC2)c2ccc(C(=O)O)cc21` [Example 1-588, 13-cyclohexyl-3-methyl-5-[2-(4-methylthiazol-2-yl)ethyl]-6,7-dihydro-5H-benzo[5,6][1,4]diazepino[7,1-a]indole-10-carboxylic acid]: the pIC50 is over 7.00.
